Measurements from patent US20030073815A1, “Adrenic acid receptor and uses thereof” (priority 2001, published 2003).
“Also recorded” adds a separate entry of the source.

Columns and labels:
PFI-011 = molecular target: T1, PFI-011 (Homo sapiens, UniProt Q8TDT2); assay: Functional assay measuring intracellular calcium mobilisation (FLIPR); assay type: cell-based; settings: PFI-011-transfected cells compared to mock-transfected cells; Fluo3, FLIPR
T1 construct: expressed in transfected cells
Method: 5×10^6 cells of a suitable host cell line, chosen to express a low number of endogenous receptors (e.g. HEK293 or CHO-K1) and engineered to stably express certain Gα proteins (e.g. mouse Gα15 (Wilkie, T. M. et al (1991) Proc. Natl. Acad. Sci. 88, 10049-10053), a chimeric Gql5/Gql5 α-subunit, or human Gα16 (Amatruda, TT 3rd et al (1991) Proc. Natl. Acad. Sci. 88, 5587-5591)), were transiently transfected with 7.5 μg of cDNA encoding PFI-011 in a suitable mammalian cell expression vector, or vector alone, using Lipofectamine Plus® reagent (Gibco BRL) as per the manufacturer's protocol. […]
Fluorescence Imaging Plate Reader (FLIPR®) technology was employed as a means to detect activation of PFI-011 by various potential GPCR agonists.
Cells were transfected as described in Example 3. […] The FLIPR® processing involved reading the fluorescence for all samples for 2 minutes; during this time the fluorescence baseline was determined for 10 seconds. The desired amount of compounds (i.e. potential GPCR agonists) was then automatically transferred to the wells and the fluorescence was continuously monitored for the remainder of the time. […]
Compounds capable of acting as agonists for the receptor were identified by them causing a transient rise in fluorescence, and therefore in intracellular calcium, in the cells.

[1] = tested on: oxygenation of arachidonic acid; settings: cited from earlier work
rabbits = settings: cited from earlier work

T1 sequence (Q8TDT2 whole entry): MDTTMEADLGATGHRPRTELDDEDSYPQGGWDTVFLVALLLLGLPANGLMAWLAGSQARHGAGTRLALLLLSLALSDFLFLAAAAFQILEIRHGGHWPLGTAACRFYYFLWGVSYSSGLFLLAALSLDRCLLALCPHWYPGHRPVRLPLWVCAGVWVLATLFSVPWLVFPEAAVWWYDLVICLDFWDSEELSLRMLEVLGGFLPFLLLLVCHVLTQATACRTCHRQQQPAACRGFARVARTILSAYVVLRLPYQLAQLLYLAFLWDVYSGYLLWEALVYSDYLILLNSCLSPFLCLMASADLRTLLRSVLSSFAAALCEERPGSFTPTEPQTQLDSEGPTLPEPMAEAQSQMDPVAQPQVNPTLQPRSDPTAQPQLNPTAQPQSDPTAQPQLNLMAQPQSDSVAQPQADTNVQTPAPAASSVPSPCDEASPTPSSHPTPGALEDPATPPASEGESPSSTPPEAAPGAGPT

In the case of `CCCCC/C=C\C/C=C\C/C=C\C/C=C\CCCCCC(=O)O` [adrenic acid], the “response of PFI-011-expressing cells (fluorescence change over time, transient rise in intracellular calcium)” value (PFI-011) is listed as “response of PFI-011-expressing cells to adrenic acid; also recorded: responds to adrenic acid”, the “oxygenation of arachidonic acid; synthesis of prostaglandins PGF2, PGE2 & PGD2” value [1] is listed as “inhibit the oxygenation of arachidonic acid” and the “blood pressure and renal flow” value (rabbits) is listed as “reduce blood pressure and renal flow”.
